Measurements reported in patent US10434077B2, “Glycolic acid and/or D-lactic acid for the treatment of neurodegenerative diseases” (MAX-PLANCK-GESELLSCHAFT ZUR FOERDERUNG DER WISSENSCHAFTEN …, priority 2014, dated 2019).
“Also recorded” adds a separate entry of the source. Read-outs that look alike come from different tables or passages of the source.

Columns and labels:
[1] = estimated; cited from earlier work
[2] = toxicology study; cited from earlier work
[3] = tested on: dopaminergic neurons from DJ-1 knock out mice; assay: In vitro survival of primary dopaminergic (TH+) neurons, DJ-1 knock out; assay type: cell-based, mouse; conditions: DJ-1 KO/mutant; 3 mM glucose, 10 mM GA, 10 mM DL
Experimental: (§3) Briefly, brain mesencephalons from E14.5 C57JBL6 or DJ-1 embryos were dissected under the microscope and digested with Trypsin-EDTA (Sigma-Aldrich). The trypsin reaction was stopped by adding the basic medium (BM) containing Neurobasal A medium (Gibco), 1 mg/ml penicillin/streptomycin, 10% (v/v) fetal calf serum (Invitrogen) and 2 mM L-glutamine and cells were mechanically dissociated using a fire-polished Pasteur pipette. Medium was fully replaced by centrifuging for 5 min. at 1200 rpm, aspiring the supernatant and adding 8 ml of the fresh BM to the pellet. […] The same volume of medium containing the different treatment substances was added 4 hours after plating to obtain the following treatment concentrations: control, 3 mM glucose, 10 mM GA, 10 mMDL and 10 mM LL. 24 hours later ⅓ of the medium was replaced with fresh BM. On DIV3 (day-in-vitro-culture 3) half of the medium was replaced with B27 medium containing Neurobasal A medium, 1 mg/ml penicillin/streptomycin, 2 mM L-Glutamine (Sigma-Aldrich) and B-27 supplement (Life Technologies) and on DIV5 all medium was replaced by B27 medium.
(§4) Dopaminergic TH^+ neurons were observed using an inverted fluorescence microscope (Axiovert 200M, Zeiss) under a 10× objective (PlanApo, NA=0.45). The diameter of every well was scanned in two perpendicular directions (i.e. top to bottom and left to right) and total TH^+ neurons were counted for every well.

DJ-1 RNAi HeLa cells [4] = assay type: cell-based, human; conditions: paraquat-treated DJ-1 RNAi HeLa cells, supplements for 24 hours
Experimental: (§1) HeLa-Kyoto cells stably expressing histone H2B-EGFP and mCherry-CAAX (clone 2B4), their parental cells, and HeLa-Kyoto expressing mouse DJ-1 transgene were used. Also, mouse embryonic fibroblast (MEF) (Pham et al., 2010) cells were used. Cells were maintained in DMEM supplemented with 10% fetal bovine serum (FBS), 2 mM GlutaMAX, 100 unit/ml penicillin, 100 μg/ml streptomycin, plus additional antibiotics for the transgene (0.5 mg/ml Geneticin for H2B-EGFP and mouse DJ-1 BAC transgene; 0.5 pug/ml puromycin for mCherry-CAAX), at 37° C. in a 5% CO2 environment. The DMEM with high glucose (5 g/1) was used unless specifically mentioned (e.g. FIG. 14). For atomic force microscopy (AFM) measurements of mammalian cells, a CO2-independent medium containing 4 mM sodium bicarbonate and 20 mM HEPES Was used. HeLa Cells Were RNAi-transfected with 160 nM endoribonuclease-digested small interfering RNA (MISSION esiRNA, Sigma) using oligofectamine reagent (Invitrogen). Paraquat (PQ^2+) was added 24 hours after RNAI. Cells were assayed after 48 hours from RNAI.
To film the osmotically challenged HeLa cells, a DeltaVision system (Applied Precision) was used, equipped with an Olympus IX-71 Inverted microscope and a 40× (UPIanApo, NA=1.00) objective. Time-lapse images were acquired at 1-min intervals except during osmotic shock treatment (equal volume of water for hypotonic shock; equal volume of the AFM medium containing 2.86% (w/v) xylose for hypertonic shock). Deconvolved and maximally projected images were analyzed manually on Image.J to annotate the radius and the volume of the round objects (i.e. mitotic cells), assuming that the cells were spherical (Stewart et al., 2011). To image mitochondria of HeLa cells, MitoTracker Red CMXRos was added at 150 nM and fixed with 3% (v/w) paraformaldehyde in PBS, 1 mM MgCl2, and 5 mM EGTA. Chromatin was counter-stained by 1 μg/ml Hoechst33342. They were imaged on the DeltaVision system using a 60× objective (PlanApo N, NA=1.42, Olympus), and deconvolved and maximally projected images were used for the analysis. Due to high background of MitoTracker in the center of the cell, mitochondria in a 15×15 um area in the periphery were manually annotated on Image.J software.

[5] = tested on: primary dopaminergic neurons from wild-type E14.5 embryos treated with PQ2+; conditions: 12.5 μM PQ2+ for 72 hours, 10 mM supplement
Experimental: Briefly, brain mesencephalons from E14.5 C57JBL6 or DJ-1 embryos were dissected under the microscope and digested with Trypsin-EDTA (Sigma-Aldrich). The trypsin reaction was stopped by adding the basic medium (BM) containing Neurobasal A medium (Gibco), 1 mg/ml penicillin/streptomycin, 10% (v/v) fetal calf serum (Invitrogen) and 2 mM L-glutamine and cells were mechanically dissociated using a fire-polished Pasteur pipette. Medium was fully replaced by centrifuging for 5 min. at 1200 rpm, aspiring the supernatant and adding 8 ml of the fresh BM to the pellet. […] The same volume of medium containing the different treatment substances was added 4 hours after plating to obtain the following treatment concentrations: control, 3 mM glucose, 10 mM GA, 10 mMDL and 10 mM LL. 24 hours later ⅓ of the medium was replaced with fresh BM. […]
as §4

[6] = tested on: mitotic MEF cells (wild type and DJ-1 knock-out); assay: Mitotic rounding pressure of mouse embryonic fibroblasts (AFM); assay type: cell-based
Experimental: as §1
(§2) Cell rounding pressure analysis with microcantilevers Cells were grown on a glass-base dish (FD35, World Precision Instruments) with a silicon spacer, which was prepared from μ-Chamber 12 well (ibidi), in the center. Medium was replaced with the CO2-independent medium, then the dish was mounted on the stage of a light microscope (AxioObserver Z1 or Axiovert200, Zeiss) equipped with a 20× objective (Plan Apochromat, NA=0.80). To measure the force of the mitotic cell, a tipless microcantilever (NSC12/CSC37-B with a nominal spring constant of 0.3 N/m, MikroMasch, Estonia) mounted on a glass block of the AFM head (NanoWizard I or II, JPK instruments, Berlin) was used. Setup and calibration were done before every experiment; see Stewart et al (Stewart at al., 2012) for the details of the procedures. In a quick force measurement illustrated in FIG. 5A, the cantilever was set at […] above the glass dish and moved over the mitotically arrested cells to measure the equilibrium force. Measuring the cellular force and pressure through mitosis was done as described (Stewart at al., 2012, Stewart at al., 2011). Otherwise the cell pressure and volume were measured in a constant-height assay, as illustrated in FIG. 5B: the cantilever was first set at 14 μm height and placed over a metaphase cell to record rounding force. The cantilever was then brought down to 8 μm height at 0.1 μmu/sec, to measure peak and equilibrium forces. The maximal cross-section area of the cell was measured from the DIC or mCherry-CAAX image to calculate cell pressure and volume. Calculation of cell pressure and volume, and the contact area to the Cantilever was done as described (Stewart et al., 2012; Stewart et al., 2011). In every experiment, RNAi penetrance was confirmed by lower pressure of MYH9 RNAI-treated cells (Toyoda at al., 2011).

[7] = tested on: primary mesencephalic dopaminergic neurons from wild type mouse embryos; assay: In vitro survival of primary dopaminergic (TH+) neurons, wild type; assay type: cell-based; conditions: 3 mM glucose, 10 mM GA, 10 mM DL, 10 mM LL, TH+ cells relative to no supplement
Experimental: as §3, §4

DJ-1 RNAi HeLa cells [8] = assay: Mitotic rounding pressure of DJ-1 RNAi HeLa cells (AFM microcantilever); assay type: cell-based, human
Experimental: as §1, §2

[9] = tested on: DJ-1 GLO1 double RNAi-treated cells; assay: Mitotic rounding pressure of DJ-1 GLO1 double RNAi-treated cells (AFM); assay type: cell-based, human; conditions: both glyoxalases DJ-1 and GLO1 knocked down
Experimental: as §1, with “HeLa Cells Were RNAi-transfected with 160 nM endoribonuclease-digested small interfering RNA (MISSION esiRNA, Sigma) using oligofectamine reagent (Invitrogen). Paraquat (PQ^2+) was added 24 hours after RNAI. Cells were assayed after 48 hours from RNAI.” left out
Cell rounding pressure analysis with microcantilevers Cells were grown on a glass-base dish (FD35, World Precision Instruments) with a silicon spacer, which was prepared from μ-Chamber 12 well (ibidi), in the center. […] Otherwise the cell pressure and volume were measured in a constant-height assay, as illustrated in FIG. 5B: the cantilever was first set at 14 μm height and placed over a metaphase cell to record rounding force. […] The maximal cross-section area of the cell was measured from the DIC or mCherry-CAAX image to calculate cell pressure and volume. […]

## OCCOCCO [diethylene glycol]
[1]
  minimum toxic dose: 0.14 mg glycolic acid per kg of body weight

## CC(O)C(=O)O (centres unmarked) [lactic acid, 2-hydroxypropanoic acid]
[2]
  amount declared as harmless: about 8 g/day

## C[C@@H](O)C(=O)O [DL, D-(−)-lactic acid]
[3]
  survival of dopaminergic neurons from DJ-1 knock out mice: could stimulate neuronal survival; also recorded: stimulate the survival
DJ-1 RNAi HeLa cells [4]
  rescue of the circular mitochondrial phenotype: rescued
DJ-1 RNAi HeLa cells [4]; listed as D-lactate
  rescue of the circular mitochondrial phenotype: rescue mitochondria structure
[5]
  rescue of the toxic effect of paraquat on dopaminergic neurons: significantly rescue the toxic effect of paraquat
[6]; DJ-1 knock-out MEFs, concentration not given
  rescue of the reduced rounding pressure of mitotic DJ-1-deficient MEFs: could rescue the reduced pressure
[6]; mitotic DJ-1 KO MEF cells, 10 mM supplement, measured after 1 hour
  rescue of the lower pressure phenotype at 10 mM: rescued the lower pressure phenotype
[7]
  in vitro survival of dopaminergic (TH+) neurons: stimulated; also recorded: stimulate the survival
[7]; listed as D-lactate
  in vitro survival of dopaminergic (TH+) neurons: support viability
DJ-1 RNAi HeLa cells [8]; HeLa kept 2 or more passages in low or no glucose medium before RNAi, measured 1 hour after addition
  rescue of the lower pressure phenotype in low or no glucose medium: rescue of the lower pressure phenotype was observed
DJ-1 RNAi HeLa cells [8]; HeLa, DJ-1 RNAi, substance added to medium, concentration not given
  rescue of the reduced rounding pressure of mitotic DJ-1 RNAi cells: could rescue the reduced pressure
DJ-1 RNAi HeLa cells [8]; RNAi-treated mitotic HeLa cells, 10 mM supplement, measured after 1 hour
  rescue of the lower pressure phenotype at 10 mM: rescued the lower pressure phenotype
[9]
  rescue of the pressure phenotype in DJ-1 and GLO1 double knock-down cells: could rescue
